Test results reported in patent US11970494B2, “6-heteroaryloxy benzimidazoles and azabenzimidazoles as JAK2 inhibitors” (Ajax Therapeutics, Inc., priority 2021, dated 2024).
≈ marks a conversion by molar mass, not a printed value. Like-named read-outs stand apart in the source and are kept apart here.

Key:
[1] = target: T1, JAK2 (JH1 domain-catalytic, Y1007F,Y1008F) kinase (Homo sapiens, UniProt O60674, Y1007F/Y1008F); assay: JAK2 Binding Assay (JAK2 JH1 Domain Binding Assay); conditions: JAK2 JH1 domain binding, qPCR detection; read-out: JAK2 Kd
T1 construct: made in house; host or cells: transiently transfected HEK293 cells
T1 sequence (O60674 849-1124 Y1007F/Y1008F limits assumed): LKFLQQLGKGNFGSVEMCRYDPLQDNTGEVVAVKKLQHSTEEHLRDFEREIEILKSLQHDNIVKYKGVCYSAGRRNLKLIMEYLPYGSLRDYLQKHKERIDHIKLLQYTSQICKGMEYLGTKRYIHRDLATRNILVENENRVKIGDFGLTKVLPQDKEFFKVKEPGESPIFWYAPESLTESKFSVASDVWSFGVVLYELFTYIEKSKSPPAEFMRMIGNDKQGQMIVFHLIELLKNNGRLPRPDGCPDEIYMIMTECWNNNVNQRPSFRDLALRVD

[2] = test system: JAK2-mediated pSTAT5 signaling in constitutively active essential thrombocytopenia cells carrying the V617F mutation; assay: SET2-pSTAT5 Cellular Assay; assay type: cell-based; conditions: Homo sapiens
Procedure: This assay measures inhibition of JAK2-mediated pSTAT5 signaling in constitutively active essential thrombocytopenia cells carrying the V617F mutation. Cells are harvested from a flask into cell culture medium, and the number of cells is counted. The cells are diluted with culture medium and 100 μL of cell suspension (50000/well) is added into each well of a 96-well cell culture plate. A solution of test compound is added to the assay plate. The plates are covered with a lid and placed in a 37° C. 5% CO2 incubator for 4 hours. After 4 hours, the cells are spun, and the cell pellets are re-suspended with 100 μL cold PBS. Then, the cells are spun again at 4° C. and 4000 rpm for 5 min. PBS is aspirated, and 25 μL lysis buffer (with protease and phosphatase inhibitor cocktail) is added to each cell pellet. The cell lysate is shaken at 4° C. for 20 min to fully lyse the cells. The cell lysate is spun at 4° C. and 4000 rpm for 15 min, and then the supernatant is transferred into a new plate and stored at −80° C. Meso-scale discovery (MSD) is used to analyze plates as follows: a standard MSD plate is coated with capture antibody in PBS (40 μL/well) and is incubated at 4° C. overnight with shaking. The MSD plate is washed three times with 150 μL/well of 1×MSD Wash Buffer (Tris-buffered saline with 0.1% Tween® 20 detergent, TBST). The MSD plates are then blocked with 150 μL of blocking buffer (5% BSA in TBST) and shaken for 1 h at room temperature and 600 rpm. The MSD plate is washed three times with 150 μL/well of 1×MSD Wash Buffer (TBST). Sample lysates are then added to MSD plates (25 μL/well) and shaken for 1 h at room temperature and 600 rpm. The MSD plate is washed three times with 150 μL/well of 1×MSD Wash Buffer (TBST). Detection antibody (prepared in Antibody Detection buffer, 1% BSA in 1×TBST) is then added to the MSD plates, and they are shaken for 1 h at room temperature and 600 rpm. The MSD plate is washed three times with 150 μL/well of 1×MSD Wash Buffer (TBST). A secondary detection antibody (prepared in Antibody Detection buffer, 1% BSA in 1×TBST) is then added to the MSD plates, and they are shaken for 1 h at room temperature and 600 rpm. The MSD plate is washed three times with 150 μL/well of 1×MSD Wash Buffer (TBST). MSD reading buffer (1×) is added to the plates (150 μL/well), and they are diluted from 4× with water. The plates are imaged using an MSD imaging instrument according to the manufacturer's instructions.

[3] = Hepatocyte Stability Assay, rat hepatocytes; assay type: in vitro ADME; conditions: cryopreserved hepatocytes, read-out: Rat Heps CLint
Procedure: 10 mM stock solutions of test compound and positive control are prepared in DMSO. Stock solutions are diluted to 100 μM by combining 198 μL of 50% acetonitrile/50% water and 2 μL of 10 mM stock solution. Verapamil is used as positive control in the assay. Vials of cryopreserved hepatocytes are thawed in a 37° C. water bath with gently shaking. The contents are poured into the 50 mL thawing medium conical tube. Vials are centrifuged at 100 g for 10 minutes at room temperature. Thawing medium is aspirated and hepatocytes are re-suspended with serum-free incubation medium to yield ˜1.5×10^6 cells/mL. Cell viability and density are counted using a Trypan Blue exclusion, and then cells are diluted with serum-free incubation medium to a working cell density of 0.5×10^6 viable cells/mL. A portion of the hepatocytes at 0.5×10^6 viable cells/mL are boiled for 5 min prior to adding to the plate as negative control to eliminate the enzymatic activity so that little or no substrate turnover should be observed. Aliquots of 198 μL hepatocytes are dispensed into each well of a 96-well non-coated plate. The plate is placed in the incubator for approximately 10 minutes. Aliquots of 2 μL of the 100 μM test compound and 2 μL positive control are added into respective wells of a non-coated 96-well plate to start the reaction. The final concentration of test compound is 1 μM. This assay is performed in duplicate. The plate is incubated in the incubator for the designed time points. 25 μL of contents are transferred and mixed with 6 volumes (150 μL) of cold acetonitrile with internal standard (100 nM alprazolam, 200 nM labetalol, 200 nM caffeine and 200 nM diclofenac) to terminate the reaction at time points of 0, 15, 30, 60, 90 and 120 minutes. Samples are centrifuged for 25 minutes at 3,220 g and aliquots of 150 μL of the supernatants are used for LC-MS/MS analysis.

Kinetic Solubility Assay = assay type: physicochemical; conditions: aqueous buffer, kinetic from dmso stock, kinetic solubility in PBS (pH 4.0 and pH 7.4 in method; pH of table values not stated), RT
Procedure: Stock solutions of test compounds are prepared in DMSO at the concentration of 10 mM, and a stock solution of control compound is prepared in DMSO at the concentration of 30 mM. Diclofenac is used as positive control in the assay. 30 μL stock solution of each compound is placed into their a 96-well rack, followed by adding 970 μL of PBS at pH 4.0 and pH 7.4 into each vial of the cap-less solubility sample plate. This study is performed in duplicate. One stir stick is added to each vial and then vials are sealed using a molded PTDE/SIL 96-Well Plate Cover. The solubility sample plate is transferred to the Thermomixer comfort plate shaker and incubated at RT for 2 hours with shaking at 1100 rpm. After 2 hours incubation, stir sticks are removed using a big magnet and all samples from the solubility sample plate are transferred into the filter plate. All the samples are filtered by vacuum manifold. The filtered samples are diluted with methanol. Samples are analyzed by LC-MS/MS and quantified against a standard of known concentration in DMSO using LC coupled with Mass spectral peak identification and quantitation. The solubility values of the test compounds are calculated as follows, wherein INJ VOL is injection volume, DF is dilution factor, and STD is standard: […]

[4] = SET-2, SET2 cells, pSTAT5, 4 hours, MSD, read-out: IC50

SMILES | IC50 [2, 4] [nM] | Kd [1] [nM] | IC50 ([2]; SET-2, 4 h) [nM] | CLint scaled at 1 μM [3] [mL/min/kg] | solubility at 2 h (Kinetic Solubility Assay) [µM]
COC(=O)Nc1cc(Oc2cnc3nc(Nc4cc(C(F)(F)F)cn(C)c4=O)n(C)c3c2C#N)ccn1 [Example I-3, Methyl (4-((7-cyano-1-methyl-2-((1-methyl-2-oxo-5-(trifluoromethyl)-1,2-dihydropyridin-3-yl)amino)-1H-imidazo[4,5-b]pyridin-6-yl)oxy)pyridin-2-yl)carbamate] |  | < 10 | < 125 | < 17 | 0.1 to 9 (≈ 0.0514 to 4.63 µg/mL)
CN(C)C(=O)Nc1cc(Oc2cnc3nc(Nc4cc(C(F)(F)F)cn(C)c4=O)n(C)c3c2C#N)ccn1 [Example I-4, 3-(4-((7-cyano-1-methyl-2-((1-methyl-2-oxo-5-(trifluoromethyl)-1,2-dihydropyridin-3-yl)amino)-1H-imidazo[4,5-b]pyridin-6-yl)oxy)pyridin-2-yl)-1,1-dimethylurea] |  | < 10 | < 125 | 17 to 35 | 9 to 100 (≈ 4.75 to 52.7 µg/mL)
CN(C)C(=O)Nc1cc(Oc2cnc3nc(Nc4cc5n(n4)CCC54CCC4)n(C)c3c2C#N)ccn1 [Example I-56, 3-(4-((7-cyano-2-((5′,6′-dihydrospiro[cyclobutane-1,4′-pyrrolo[1,2-b]pyrazol]-2′-yl)amino)-1-methyl-1H-imidazo[4,5-b]pyridin-6-yl)oxy)pyridin-2-yl)-1,1-dimethylurea] |  | < 10 | 125 to 200 | 17 to 35 | 9 to 100 (≈ 4.49 to 49.9 µg/mL)
COC(=O)Nc1cc(Oc2cnc3nc(Nc4cc5n(n4)CCC54CCC4)n(C)c3c2C#N)ccn1 [Example I-57, methyl(4-((7-cyano-2-((5′,6′-dihydrospiro[cyclobutane-1,4′-pyrrolo[1,2-b]pyrazol]-2′-yl)amino)-1-methyl-1H-imidazo[4,5-b]pyridin-6-yl)oxy)pyridin-2-yl)carbamate] |  | < 10 | 125 to 200 | 35 to 45 | 0.1 to 9 (≈ 0.0486 to 4.37 µg/mL)
CO[C@@H]1CCN(C(=O)Nc2cc(Oc3cnc4nc(Nc5cc6n(n5)CCC65CCC5)n(C)c4c3C#N)ccn2)C1 [Example I-60, (R)-N-(4-((7-cyano-2-((5′,6′-dihydrospiro[cyclobutane-1,4′-pyrrolo[1,2-b]pyrazol]-2′-yl)amino)-1-methyl-1H-imidazo[4,5-b]pyridin-6-yl)oxy)pyridin-2-yl)-3-methoxypyrrolidine-1-carboxamide] | < 125 | < 10 |  | 17 to 35 | 9 to 100 (≈ 4.99 to 55.5 µg/mL)
COC1CN(C(=O)Nc2cc(Oc3cnc4nc(Nc5cc6n(n5)CCC65CCC5)n(C)c4c3C#N)ccn2)C1 [Example I-61, N-(4-((7-cyano-2-((5′,6′-dihydrospiro[cyclobutane-1,4′-pyrrolo[1,2-b]pyrazol]-2′-yl)amino)-1-methyl-1H-imidazo[4,5-b]pyridin-6-yl)oxy)pyridin-2-yl)-3-methoxyazetidine carboxamide] | < 125 | < 10 |  | 35 to 45 | 0.1 to 9 (≈ 0.0541 to 4.87 µg/mL)

The next lines start with results.

IC50 [2, 4] [nM] | SMILES | Kd [1] [nM] | IC50 ([2]; SET-2, 4 h) [nM] | CLint scaled at 1 μM [3] [mL/min/kg] | solubility at 2 h (Kinetic Solubility Assay) [µM]
< 125 | Cn1cc(C(F)(F)F)cc(Nc2nc3ncc(Oc4ccnc(NC(=O)N5CCC5)c4)c(C#N)c3n2C)c1=O [Example I-7, N-(4-((7-cyano-1-methyl-2-((1-methyl-2-oxo-5-(trifluoromethyl)-1,2-dihydropyridin-3-yl)amino)-1H-imidazo[4,5-b]pyridin-6-yl)oxy)pyridin-2-yl)azetidine-1-carboxamide] | < 10 |  | 17 to 35 | 0.1 to 9 (≈ 0.0539 to 4.86 µg/mL)
< 125 | CO[C@H]1CCN(C(=O)Nc2cc(Oc3cnc4nc(Nc5cc(C(F)(F)F)cn(C)c5=O)n(C)c4c3C#N)ccn2)C1 [Example I-14, (S)-N-(4-((7-cyano-1-methyl-2-((1-methyl-2-oxo-5-(trifluoromethyl)-1,2-dihydropyridin-3-yl)amino)-1H-imidazo[4,5-b]pyridin-6-yl)oxy)pyridin-2-yl)-3-methoxypyrrolidine-1-carboxamide] | < 10 |  | < 17 | 0.1 to 9 (≈ 0.0584 to 5.25 µg/mL)
< 125 | Cn1cc(C(F)(F)F)cc(Nc2nc3ncc(Oc4ccnc(NC(=O)OCCN5CCOCC5)c4)c(C#N)c3n2C)c1=O [Example I-15, 2-Morpholinoethyl(4-((7-cyano-1-methyl-2-((1-methyl-2-oxo-5-(trifluoromethyl)-1,2-dihydropyridin-3-yl)amino)-1H-imidazo[4,5-b]pyridin-6-yl)oxy)pyridin-2-yl)carbamate] | < 10 |  | < 17 | 9 to 100 (≈ 5.52 to 61.4 µg/mL)
< 125 | Cn1cc(C(F)(F)F)cc(Nc2nc3ncc(Oc4ccnc(NC(=O)O[C@@H]5CCOC5)c4)c(C#N)c3n2C)c1=O [Example I-18, (R)-Tetrahydrofuran-3-yl(4-((7-cyano-1-methyl-2-((1-methyl-2-oxo-5-(trifluoromethyl)-1,2-dihydropyridin-3-yl)amino)-1H-imidazo[4,5-b]pyridin-6-yl)oxy)pyridin-2-yl)carbamate] | < 10 |  | 17 to 35 | 0.1 to 9 (≈ 0.057 to 5.13 µg/mL)
200 to 1000 | COC1CN(C(=O)Nc2cc(Oc3cnc4nc(Nc5cc6n(n5)CCCC6(F)F)n(C)c4c3C#N)ccn2)C1 [Example I-26, N-(4-((7-cyano-2-((4,4-difluoro-4,5,6,7-tetrahydropyrazolo[1,5-a]pyridin-2-yl)amino)-1-methyl-1H-imidazo[4,5-b]pyridin-6-yl)oxy)pyridin-2-yl)-3-methoxyazetidine-1-carboxamide] | < 10 |  | < 17 | 9 to 100 (≈ 4.95 to 55.1 µg/mL)
1000 to 5000 | Cn1c(Nc2cc3n(n2)CCOC3(C)C)nc2ncc(Oc3ccnc(NC(=O)O[C@@H]4CCOC4)c3)c(C#N)c21 [Example I-48, (R)-Tetrahydrofuran-3-yl(4-((7-cyano-2-((4,4-dimethyl-6,7-dihydro-4H-pyrazolo[5,1-c][1,4]oxazin-2-yl)amino)-1-methyl-1H-imidazo[4,5-b]pyridin-6-yl)oxy)pyridin-2-yl)carbamate] | < 10 |  |  | 0.1 to 9 (≈ 0.0546 to 4.91 µg/mL)
